Paper PMC6198068, “Discovery of a Novel Nav1.7 Inhibitor From Cyriopagopus albostriatus Venom With Potent Analgesic Efficacy” (Frontiers in Pharmacology, 2018)
Where a SMILES comes first, the peptide text is derived from it. Bridges are numbered along the chain shown (N, C = ends).

Legend:
[1] = test system: formalin-induced paw licking in mice; assay: Formalin-induced paw licking; format: in vivo, ICR mice; settings: for paw licking time, Phase I: control 90.3 ± 6.6 s; for paw licking time, Phase I / paw licking time, Phase II: mean ± SEM, n = 6–8; for paw licking time, Phase II: control 197.7 ± 20.7 s
Experimental: The ICR mice (18–22 g) used in this study were purchased from the Experimental Animal Center of SLac-kinda (Changsha, China). The animals were maintained at 20–25°C and freely allowed to standard rodent chow and water ad libitum. Ethical approval for in vivo experiments in animals was approved by the Animal Care and Use Committee (ACUC) at the Hunan Province Animal Management Office (HPAMO).
A formalin test was performed according to the previous method ([Owoyele et al., 2005]). […] The time spent licking the injected paw by each mouse was recorded by a digital stopwatch during Phase I (0–15 min post-injection) and Phase II (15–40 min post-injection).

[2] = target: T1, Nav1.7 (Homo sapiens, UniProt Q15858); assay: I–V relationships and voltage-dependent activation of Nav1.7; format: cell-based; settings: 0.2 μM, n = 10
T1 construct: expressed in transfected cells; host or cells: HEK293T
T1 sequence (O60939 30-215): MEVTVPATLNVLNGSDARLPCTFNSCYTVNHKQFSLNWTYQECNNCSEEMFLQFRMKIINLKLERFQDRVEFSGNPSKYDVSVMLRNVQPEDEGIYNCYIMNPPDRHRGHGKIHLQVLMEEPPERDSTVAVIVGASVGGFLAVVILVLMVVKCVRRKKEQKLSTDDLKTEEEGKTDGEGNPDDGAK
T1 sequence (Q15858 other isoform, or with tags, fused parts or gaps): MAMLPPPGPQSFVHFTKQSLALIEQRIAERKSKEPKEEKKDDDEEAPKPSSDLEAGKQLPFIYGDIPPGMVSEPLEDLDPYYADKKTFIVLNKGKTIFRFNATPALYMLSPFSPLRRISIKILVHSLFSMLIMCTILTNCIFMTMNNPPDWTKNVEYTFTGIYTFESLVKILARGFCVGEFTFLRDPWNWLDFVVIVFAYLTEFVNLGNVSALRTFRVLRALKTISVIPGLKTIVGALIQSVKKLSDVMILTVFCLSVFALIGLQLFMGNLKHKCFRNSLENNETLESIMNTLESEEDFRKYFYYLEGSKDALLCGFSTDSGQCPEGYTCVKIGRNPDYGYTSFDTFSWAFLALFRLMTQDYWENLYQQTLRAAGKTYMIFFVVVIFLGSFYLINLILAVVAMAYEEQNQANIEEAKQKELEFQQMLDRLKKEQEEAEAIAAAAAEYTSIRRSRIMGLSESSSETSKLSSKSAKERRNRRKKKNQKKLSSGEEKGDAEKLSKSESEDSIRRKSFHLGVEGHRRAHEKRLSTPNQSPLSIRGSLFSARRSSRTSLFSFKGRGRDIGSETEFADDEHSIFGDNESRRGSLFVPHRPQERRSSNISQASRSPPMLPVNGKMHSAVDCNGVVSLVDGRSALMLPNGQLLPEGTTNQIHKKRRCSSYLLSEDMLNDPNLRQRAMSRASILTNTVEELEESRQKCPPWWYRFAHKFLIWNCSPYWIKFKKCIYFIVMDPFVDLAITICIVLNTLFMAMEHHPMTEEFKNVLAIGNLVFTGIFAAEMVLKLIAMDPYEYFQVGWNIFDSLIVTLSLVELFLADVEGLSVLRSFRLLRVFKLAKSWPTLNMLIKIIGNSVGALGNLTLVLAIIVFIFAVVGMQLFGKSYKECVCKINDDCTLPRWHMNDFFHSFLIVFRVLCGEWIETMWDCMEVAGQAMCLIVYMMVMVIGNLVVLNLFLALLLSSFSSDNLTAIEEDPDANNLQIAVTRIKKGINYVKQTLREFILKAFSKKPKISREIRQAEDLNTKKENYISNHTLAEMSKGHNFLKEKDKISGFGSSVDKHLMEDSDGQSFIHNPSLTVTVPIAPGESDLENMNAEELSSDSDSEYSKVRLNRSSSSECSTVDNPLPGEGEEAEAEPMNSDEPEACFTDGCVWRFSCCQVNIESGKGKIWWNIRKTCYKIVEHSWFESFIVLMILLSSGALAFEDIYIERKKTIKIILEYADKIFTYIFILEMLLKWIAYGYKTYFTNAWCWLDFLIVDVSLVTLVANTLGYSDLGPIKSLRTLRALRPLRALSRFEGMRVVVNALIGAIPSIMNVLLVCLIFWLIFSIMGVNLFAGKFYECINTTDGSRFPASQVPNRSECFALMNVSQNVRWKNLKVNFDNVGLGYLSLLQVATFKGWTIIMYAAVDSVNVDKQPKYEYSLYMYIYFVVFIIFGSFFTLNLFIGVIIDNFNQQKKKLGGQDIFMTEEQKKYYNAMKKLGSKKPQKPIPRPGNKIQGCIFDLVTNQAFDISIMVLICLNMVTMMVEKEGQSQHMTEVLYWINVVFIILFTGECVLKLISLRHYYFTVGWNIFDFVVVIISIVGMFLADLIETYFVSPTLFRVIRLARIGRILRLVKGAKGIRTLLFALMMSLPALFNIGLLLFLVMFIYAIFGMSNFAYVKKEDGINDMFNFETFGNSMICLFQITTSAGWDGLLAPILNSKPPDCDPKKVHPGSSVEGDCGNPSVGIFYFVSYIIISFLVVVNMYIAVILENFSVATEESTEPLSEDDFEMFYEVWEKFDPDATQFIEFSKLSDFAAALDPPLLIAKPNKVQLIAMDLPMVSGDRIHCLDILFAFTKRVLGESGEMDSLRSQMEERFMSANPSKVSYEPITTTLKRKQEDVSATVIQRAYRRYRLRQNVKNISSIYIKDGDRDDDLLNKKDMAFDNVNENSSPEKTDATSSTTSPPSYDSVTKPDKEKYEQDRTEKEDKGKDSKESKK
T1 sequence (Q07699 19-218, further chain): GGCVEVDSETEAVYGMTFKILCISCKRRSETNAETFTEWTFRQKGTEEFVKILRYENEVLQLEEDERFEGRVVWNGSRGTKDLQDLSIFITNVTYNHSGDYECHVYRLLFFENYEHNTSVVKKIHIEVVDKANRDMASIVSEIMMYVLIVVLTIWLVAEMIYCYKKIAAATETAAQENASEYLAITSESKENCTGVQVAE
Source text: (§1) The cDNA genes encoding rat Nav1.4 and human Nav1.7 were subcloned into vectors pRGB4 and pcDNA3.1-mod, respectively. Mutations of rNav1.4 (N655D, Q657E, and N655D/Q657E) and hNav1.7 (D816N, E818Q, and D816N/E818Q) were constructed using the Gene Tailor Site-Directed Mutagenesis system (Invitrogen, Carlsbad, CA, United States), according to the manufacturer’s instructions. Nav1.2–Nav1.7 and mutant plasmids together with eGFP were transiently transfected into HEK293T cells while Nav1.8 together with eGFP was transiently transfected into ND7/23 cells by Lipofectamine 2000 (Invitrogen, Carlsbad, CA, United States). Additionally, plasmids β1- and β2-eGFP encoding the human β1 and β2 subunits, respectively, were co-transfected with those encoding WT Nav1.7 and Nav1.7 mutations in HEK293T cells. […] Cells with green fluorescent protein fluorescence were selected for whole-cell patch-clamp recordings 24 h after transfection.
(§2) Whole-cell patch-clamp recordings were performed at room temperature (20–25°C) using an EPC 10 USB Patch Clamp Amplifier (HEKA, Elektronik, Lambrecht, Germany). […] Data was analyzed by software Igo Pro 6.10A (WaveMetrics, Lake Oswego, OR, United States), SigmaPlot 10.0 (Sigma-Aldrich, St. Louis, MO, United States), OriginPro 8 (OriginLab Corp., Northampton, MA, United States), and GraphPad Prism 5 (GraphPad Software, San Diego, CA, United States). […]

[3] = test system: Nav1.7/D816N/E818Q; assay: Whole-cell patch-clamp, Nav1.7/D816N/E818Q in HEK293T cells; format: cell-based, human; settings: 1 μM, n = 5 cells
Source text: as §1, §2

What does the source list for `CC(C)C[C@H](NC(=O)[C@H](CC(=O)O)NC(=O)[C@H](Cc1ccc(O)cc1)NC(=O)[C@H](CCCCN)NC(=O)[C@@H]1CSSC[C@@H]2NC(=O)[C@H](CCCCN)NC(=O)[C@H](CC(=O)O)NC(=O)[C@H](CC(N)=O)NC(=O)[C@H](CO)NC(=O)[C@@H]3CCCN3C(=O)[C@H](CC(N)=O)NC(=O)[C@@H]3CSSC[C@H](NC(=O)[C@H](C(C)C)NC(=O)[C@H](CC(C)C)NC(=O)[C@H](CO)NC(=O)[C@H](CO)NC(=O)[C@H](CO)NC(=O)[C@H](CCCCN)NC(=O)[C@H](CSSC[C@H](NC(=O)[C@H](C)N)C(=O)N[C@@H](CC(C)C)C(=O)NCC(=O)N[C@@H](Cc4ccccc4)C(=O)NCC(=O)N[C@@H](CCC(=O)O)C(=O)N[C@@H](CCCCN)C(=O)N3)NC2=O)C(=O)N[C@@H](CO)C(=O)N[C@@H](CCC(N)=O)C(=O)N[C@@H](CCCCN)C(=O)N[C@@H](Cc2c[nH]cn2)C(=O)N[C@@H](CCCCN)C(=O)N[C@@H](Cc2c[nH]c3ccccc23)C(=O)N1)C(=O)O` [Ca2a] (H-ACLGFGEKCNPSNDKCCKSSSLVCSQKHKWCKYDL-OH; disulfide 2-17, 9-24, 16-31 (inferred); N-terminus and C-terminus assumed)?
paw licking time, Phase I ([1]; 0–15 min, 50 μg/kg i.p. 30 min before 5% formalin): 80.1 ± 4.6 s; paw licking time, Phase I ([1]; 0–15 min, 100 μg/kg i.p. 30 min before 5% formalin): 79.4 ± 9.5 s; paw licking time, Phase I ([1]; 0–15 min, 200 μg/kg i.p. 30 min before 5% formalin): 75.6 ± 7.7 s; analgesic effect on Phase I compared to control ([1]; 0–15 min, Ca2a 50, 100, 200 μg/kg, morphine 100 μg/kg, i.p.): no analgesic effect; paw licking time, Phase II ([1]; 15–40 min, 50 μg/kg i.p. 30 min before 5% formalin): 100.9 ± 16.2 s; paw licking time, Phase II ([1]; 15–40 min, 100 μg/kg i.p. 30 min before 5% formalin): 67.2 ± 20.2 s; paw licking time, Phase II ([1]; 15–40 min, 200 μg/kg i.p. 30 min before 5% formalin): 40.5 ± 7.1 s; analgesic effect on Phase II ([1]; 15–40 min, 50, 100, 200 μg/kg i.p.): significant analgesic effect in a dose-dependent manner; analgesia relative to morphine, formalin test ([1]; formalin, hot plate and writhing together, Ca2a vs morphine): dose-dependently equipotent or stronger analgesia than morphine; half-activation voltage of Nav1.7 ([2]; control −20.1 ± 1.1 mV, mean ± SEM): −18.9 ± 1.3 mV; threshold of initial activation voltage, active voltage of peak current, reversal potential of Nav1.7 (I–V) [2]: did not change; activity on Nav1.7/D816N/E818Q [3]: no activity
